Tested on: hepatic drug metabolizing enzymes
Conditions: rat, in vivo; cited from earlier work

Molecule | effect on hepatic drug metabolizing enzymes
O=C(/C=C/C=C/c1ccc2c(c1)OCO2)N1CCCCC1 [piperine] | inhibiting their activity

Tested on: tip of the tongue of the volunteers
Conditions: human, in vivo

Molecule | Pungency index
3-(4-allyloxy phenyl)-2E-propenoic acid morpholine amide [viii] | 10^4
3-[(2H)-2,2-dimethyl-3,4-dihydro-benzopyran-6yl]-2E-propenoic acid morpholine amide [ix] | 10^6
O=C(/C=C/C=C/c1ccc2c(c1)OCO2)N1CCCCC1 [A, reference compound] | 10^4
COc1ccc(/C=C/C=C/C(=O)N2CCOCC2)cc1 [i, 5-(4-methoxyphenyl)-2E, 4E-pentadienoic acid morpholine amide] | 10^6
CC(C)Oc1ccc(/C=C/C=C/C(=O)N2CCOCC2)cc1 [ii, 5-(4-isopropyloxyphenyl)-2E, 4E-pentadienoic acid morpholine amide] | 10^7
CC1(C)CCc2cc(/C=C/C=C/C(=O)N3CCOCC3)ccc2O1 [iii, 5-(2H)-2,2-dimethyl-3,4-dihydro-benzopyran-6yl-2E, 4E-pentadienoic acid morpholine amide] | 10^4
O=C(/C=C/C=C/c1ccc2c(c1)OCCO2)N1CCOCC1 [iv, 5-(3,4-ethylenedioxyphenyl)-2E, 4E-pentadienoic acid morpholine amide] | 10^4
COc1ccc(/C=C/C(=O)N2CCOCC2)cc1 [v, 3-(4-methoxyphenyl)-2E-propenoic acid morpholine amide] | 10^5
CC(C)Oc1ccc(/C=C/C(=O)N2CCOCC2)cc1 [vi, 3-(4-isopropyloxyphenyl)-2E-propenoic acid morpholine amide] | 10^6
CCCCOc1ccc(/C=C/C(=O)N2CCOCC2)cc1 [vii, 3-(4-butyloxyphenyl)-2E-propenoic acid morpholine amide] | 10^7
O=C(/C=C/c1ccc2c(c1)OCCO2)N1CCOCC1 [x, 3-(3,4-ethylenedioxyphenyl)-2E-propenoic acid morpholine amide] | 10^4

Tested on: tongue
Conditions: in vivo; cited from earlier work

Molecule | heat units (pungency)
COc1cc(CNC(=O)CCCC/C=C/C(C)C)ccc1O [capsaicin] | 10^7 units
